From PMC10187112 (Journal of Enzyme Inhibition and Medicinal Chemistry, 2023)
Like-named read-outs stand apart in the source and are kept apart here.

How the values were obtained:
[1] = biological target: T1, human dopamine D2 (D2S) receptor (Homo sapiens, UniProt P14416); experiment: Competition radioligand binding, [3H]-spiperone, CHO-K1 membranes; settings: for Ki: human cloned D2S; for inhibition at 10 µM: read-out: % inh. at 10 μM D2
T1 construct: expressed in transfected cells; host or cells: CHO-K1
T1 sequence (P14416 1-414 isoform P14416-2): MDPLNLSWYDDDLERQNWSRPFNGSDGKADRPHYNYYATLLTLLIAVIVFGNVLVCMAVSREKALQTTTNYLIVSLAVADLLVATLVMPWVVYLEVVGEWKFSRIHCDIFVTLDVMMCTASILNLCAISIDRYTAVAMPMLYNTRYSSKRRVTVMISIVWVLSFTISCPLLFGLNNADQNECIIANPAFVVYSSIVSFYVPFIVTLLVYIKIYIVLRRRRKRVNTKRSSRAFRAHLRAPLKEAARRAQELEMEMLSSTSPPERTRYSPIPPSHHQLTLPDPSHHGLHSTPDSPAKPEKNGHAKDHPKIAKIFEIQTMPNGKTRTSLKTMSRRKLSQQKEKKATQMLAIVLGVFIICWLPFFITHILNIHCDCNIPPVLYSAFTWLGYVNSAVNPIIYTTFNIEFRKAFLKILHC
Experimental: (§1) Experiments were carried out in membranes from cell lines stably expressing the human cloned receptors.
(§2) Competition radioligand binding assays were performed on membranes isolated from cell lines stable expressing the cloned human receptors, which were either in-house or commercially available. […] Assays (250 μL assay final volume) were carried out in 96-well polypropylene plates in duplicate. In short, suspension of appropriate membrane protein was incubated in assay buffer with addition of the corresponding radioligand, in the presence or absence of tested compound or reference compound. […] After the incubation, the content of the test plates was transferred to 96-well plates with glass fibre filter GF/B or GF/C, previously pre-treated with polyethyleneimine (PEI), and rapidly filtered with the use of vacuum, followed by rapid washing with cold (4 °C) wash buffer. After that the filter plates were dried at 60 °C for 1 h. Then, 30 μL of liquid scintillation cocktail (UniverSol-ES, MP Biomedicals, Solon, OH) was added to each well of the filter plates and the radioactivity was measured in a MicroBeta2 microplate scintillation counter (PerkinElmer, Madrid, Spain).
(§3) Competition binding curves were fitted to a one-site competition binding model (Fit Ki) with the use of Prism 7 software (GraphPad, San Diego, CA). logKi (log of the equilibrium dissociation constant (Ki)) values were obtained after constraining the concentration of radioligand employed in the assay and its dissociation constant (KD) as determined in saturation radioligand binding assays.

[2] = biological target: T2, human serotonin 5-HT2A receptor (Homo sapiens, UniProt P28223); experiment: Competition radioligand binding, [3H]-Ketanserin, CHO-K1 membranes; settings: for Ki: human cloned 5-HT2A; for pKi 5-HT2A/pKi D2: ratio of pKi values; for inhibition at 10 µM: read-out: % inh. at 10 μM 5-HT2A
T2 construct: expressed in transfected cells; host or cells: CHO-K1
T2 sequence (P28223 whole entry): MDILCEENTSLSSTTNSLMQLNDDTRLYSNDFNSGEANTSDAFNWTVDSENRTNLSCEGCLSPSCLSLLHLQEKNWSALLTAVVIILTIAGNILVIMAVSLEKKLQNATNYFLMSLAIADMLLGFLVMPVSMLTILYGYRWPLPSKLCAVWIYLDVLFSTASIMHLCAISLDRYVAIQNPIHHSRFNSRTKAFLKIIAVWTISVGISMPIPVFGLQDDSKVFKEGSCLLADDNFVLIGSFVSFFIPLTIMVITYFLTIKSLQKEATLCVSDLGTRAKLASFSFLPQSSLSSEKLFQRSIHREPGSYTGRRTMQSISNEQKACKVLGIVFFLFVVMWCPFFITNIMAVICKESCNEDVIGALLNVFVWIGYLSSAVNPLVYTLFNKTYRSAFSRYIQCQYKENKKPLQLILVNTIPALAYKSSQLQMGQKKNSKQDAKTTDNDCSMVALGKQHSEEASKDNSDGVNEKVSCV
Experimental: as §1, §2, §3

[3] = biological target: T3, human serotonin 5-HT1A receptor (Homo sapiens, UniProt P08908); experiment: Competition radioligand binding, [3H]-8-OH-DPAT, HEK293 membranes; settings: for Ki: human cloned 5-HT1A; for inhibition at 10 µM: read-out: % inh. at 10 μM 5-HT1A
T3 construct: expressed in transfected cells; host or cells: HEK293
T3 sequence (P08908 1-422): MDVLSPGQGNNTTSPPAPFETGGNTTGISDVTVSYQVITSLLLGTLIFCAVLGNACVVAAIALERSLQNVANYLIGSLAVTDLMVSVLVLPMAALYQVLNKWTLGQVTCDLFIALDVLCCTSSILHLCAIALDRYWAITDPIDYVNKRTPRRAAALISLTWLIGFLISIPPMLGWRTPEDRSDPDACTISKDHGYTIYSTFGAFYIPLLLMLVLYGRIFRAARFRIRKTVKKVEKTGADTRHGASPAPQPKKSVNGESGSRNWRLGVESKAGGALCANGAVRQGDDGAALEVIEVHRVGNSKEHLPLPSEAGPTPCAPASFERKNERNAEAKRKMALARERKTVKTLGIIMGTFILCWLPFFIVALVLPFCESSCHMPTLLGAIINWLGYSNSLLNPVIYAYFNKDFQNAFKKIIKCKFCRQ
Experimental: as §1, §2, §3

[4] = biological target: T4, human 5-HT7 receptor (Homo sapiens, UniProt P34969); experiment: Competition radioligand binding, [3H]-SB269970, HEK293 membranes
T4 construct: expressed in transfected cells; host or cells: HEK293
T4 sequence (P34969 whole entry): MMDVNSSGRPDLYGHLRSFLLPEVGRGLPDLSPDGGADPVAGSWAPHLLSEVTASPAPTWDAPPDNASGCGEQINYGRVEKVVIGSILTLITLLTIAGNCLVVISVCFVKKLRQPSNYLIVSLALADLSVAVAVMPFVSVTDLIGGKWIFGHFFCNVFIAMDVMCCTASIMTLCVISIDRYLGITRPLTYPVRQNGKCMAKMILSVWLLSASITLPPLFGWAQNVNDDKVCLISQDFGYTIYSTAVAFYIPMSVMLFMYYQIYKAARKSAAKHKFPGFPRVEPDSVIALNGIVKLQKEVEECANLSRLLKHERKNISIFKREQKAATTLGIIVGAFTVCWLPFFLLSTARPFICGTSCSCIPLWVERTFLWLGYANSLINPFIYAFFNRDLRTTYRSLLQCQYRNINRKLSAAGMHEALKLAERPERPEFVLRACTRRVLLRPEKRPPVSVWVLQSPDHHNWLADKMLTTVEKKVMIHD
Experimental: as §2, §3

[5] = system: mice; experiment: Rota-rod test (motor coordination); format: in vivo; settings: 20, 40, and 80 mg/kg i.p., 60 min after treatment, 3 min
Experimental: To fully assess the impact of selected compounds on animals’ motor coordination, both compounds (at the same doses as were used for spontaneous locomotor activity measurements) were tested also in the rota-rod test. The applied protocol has been already validated in our laboratory[12]^,[62]^,[63]. […] The time spent by each mouse on the rota-rod was measured for 3 min. The additional aim of the rota-rod test was to confirm the appropriate selection of doses for further behavioural examination. […] After such confirmation, the above-mentioned doses were chosen for the rest of behavioural tests.

[6] = biological target: T5, human histamine H1 receptor (Homo sapiens, UniProt P35367); experiment: Competition radioligand binding, [3H]-pyrilamine, CHO-K1 membranes
T5 construct: expressed in transfected cells; host or cells: CHO-K1
T5 sequence (P35367 whole entry): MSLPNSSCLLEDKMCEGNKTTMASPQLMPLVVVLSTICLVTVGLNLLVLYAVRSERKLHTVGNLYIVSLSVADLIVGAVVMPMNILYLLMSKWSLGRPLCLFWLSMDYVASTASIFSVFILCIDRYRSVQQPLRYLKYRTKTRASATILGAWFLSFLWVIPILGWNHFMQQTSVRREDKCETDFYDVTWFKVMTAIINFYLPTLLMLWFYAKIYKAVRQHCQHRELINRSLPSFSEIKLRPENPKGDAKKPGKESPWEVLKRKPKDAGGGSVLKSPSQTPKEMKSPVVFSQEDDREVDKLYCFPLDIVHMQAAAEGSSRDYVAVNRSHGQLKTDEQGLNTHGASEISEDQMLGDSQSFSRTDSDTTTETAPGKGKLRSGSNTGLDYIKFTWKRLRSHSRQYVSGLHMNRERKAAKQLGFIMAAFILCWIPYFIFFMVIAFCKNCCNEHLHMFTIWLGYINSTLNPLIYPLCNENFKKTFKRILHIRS
Experimental: as §2, §3

[7] = system: mice; experiment: Amphetamine-induced hyperactivity; settings: p < 0.0001
[8] = biological target: T6, human 5-HT1A receptor (Homo sapiens, UniProt P08908); experiment: Functional assay of cAMP signalling (5-HT1A agonism), HEK293 cells; format: cell-based; settings: for inhibition at 10 µM: HEK293, 10 µM compound, 1 µM forskolin, read-out: 5-HT1A agonism %inh. of FSK response
T6 construct: expressed in transfected cells; host or cells: HEK293
T6 sequence (P08908 1-422): T3 sequence (P08908 1-422)
Experimental: The activity of selected compounds at 5-HT1A receptor was investigated in cell-based functional assays of cAMP signalling in the HEK293 cell line stably expressing the cloned human 5-HT1A receptor also employed for the radioligand binding assays. […] Test compounds were added to the assay plates from 5× working dilution intermediate plates, which were prepared by means of acoustic noncontact dispensing of the compounds, keeping vehicle concentration (0.1% DMSO) constant in the assay.

[9] = system: mice; experiment: Elevated plus maze (EPM) test (anxiety); settings: 40 mg/kg i.p., 60 min before test
[10] = system: mice; experiment: Passive avoidance (PA) test (memory); settings: 40 mg/kg i.p., 60 min before test
[11] = biological target: T7, human 5-HT2A receptor (Homo sapiens, UniProt P28223); experiment: Functional assay of inositol phosphate production (5-HT2A antagonism), CHO-K1 cells; format: cell-based; settings: for inhibition at 10 µM: CHO-K1, read-out: 5-HT2A antagonism %inh. of 5-HT response; for Kb: read-out: 5-HT2A antagonism (IP signalling) Kb
T7 construct: expressed in transfected cells; host or cells: CHO-K1
T7 sequence (P28223 whole entry): as the sequence (P28223 whole entry) above
Experimental: The activity of selected compounds at 5-HT2A receptors was investigated in cell-based functional assays of IP production in the CHO-K1 cell line stably expressing the cloned human 5-HT2A receptor also employed for the radioligand binding assays. Twenty-four hours before the experiment, cells in culture were seeded in complete growth medium prepared with dialysed foetal bovine serum, in half-area, white, 96-well tissue culture plates (Corning®, Fisher Scientific SL, Madrid, Spain). At the day of assay, plates were washed with assay buffer (kit stimulation buffer) and incubated with test compounds for 10 min at 37 °C. Test compounds were added to the assay plates from 7× working dilution intermediate plates that were prepared by means of acoustic noncontact dispensing of the compounds, keeping vehicle concentration (0.1% DMSO) constant in the assay. […] After this time, cellular IP levels were quantified by using the HTRF-based inositol monophosphate kit IP-One Gq kit (Cisbio, Bioassays, Codolet, France) following the manufacturer’s protocol. […] Basal IP levels were determined in control wells in the absence of compound and agonist. […] Kb value of the compounds was estimated as described above for functional assays of cAMP signalling at D2 receptors.

[12] = system: mice; experiment: Spontaneous locomotor activity; settings: 20, 40, and 80 mg/kg i.p., recorded 30 min, 30 min after injection
[13] = biological target: T8, human dopamine D1 receptor (Homo sapiens, UniProt P21728); experiment: Competition radioligand binding, [3H]-SCH-23390, CHO-K1 membranes
T8 construct: expressed in transfected cells; host or cells: CHO-K1
T8 sequence (P21728 whole entry): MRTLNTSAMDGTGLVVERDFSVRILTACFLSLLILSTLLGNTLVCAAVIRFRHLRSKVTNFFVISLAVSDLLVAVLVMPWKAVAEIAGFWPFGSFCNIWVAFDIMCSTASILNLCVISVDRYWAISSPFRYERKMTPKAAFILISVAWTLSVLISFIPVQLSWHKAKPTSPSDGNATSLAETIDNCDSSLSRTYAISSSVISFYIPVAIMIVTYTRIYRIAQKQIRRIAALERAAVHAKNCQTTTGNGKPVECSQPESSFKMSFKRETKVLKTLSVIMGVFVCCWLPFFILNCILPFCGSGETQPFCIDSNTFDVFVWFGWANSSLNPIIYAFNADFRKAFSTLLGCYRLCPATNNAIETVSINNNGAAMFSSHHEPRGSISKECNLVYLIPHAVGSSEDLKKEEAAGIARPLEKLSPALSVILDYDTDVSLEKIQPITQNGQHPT
Experimental: Competition radioligand binding assays were performed on membranes isolated from cell lines stable expressing the cloned human receptors, which were either in-house or commercially available. […] Assays (250 μL assay final volume) were carried out in 96-well polypropylene plates in duplicate. In short, suspension of appropriate membrane protein was incubated in assay buffer with addition of the corresponding radioligand, in the presence or absence of tested compound or reference compound. […] Then, 30 μL of liquid scintillation cocktail (UniverSol-ES, MP Biomedicals, Solon, OH) was added to each well of the filter plates and the radioactivity was measured in a MicroBeta2 microplate scintillation counter (PerkinElmer, Madrid, Spain).
as §3

[14] = biological target: human D2S receptor (Homo sapiens, UniProt P14416); experiment: Functional assay of cAMP signalling (D2 antagonism), CHO-K1 cells; settings: for inhibition at 1 µM: CHO-K1, read-out: % of inhibition of 1 µM dopamine response; for inhibition at 10 µM: CHO-K1, read-out: D2 antagonism %inh. of DA response
Sequence of human D2S receptor (P14416 1-414 isoform P14416-2): as the sequence (P14416 1-414 isoform P14416-2) above

[15] = biological target: T9, human muscarinic M1 receptor (Homo sapiens, UniProt P11229); experiment: Competition radioligand binding, [3H]-pirenzepine, CHO-K1 membranes; settings: read-out: % inh. at 10 μM M1
T9 construct: expressed in transfected cells; host or cells: CHO-K1
T9 sequence (P11229 1-460): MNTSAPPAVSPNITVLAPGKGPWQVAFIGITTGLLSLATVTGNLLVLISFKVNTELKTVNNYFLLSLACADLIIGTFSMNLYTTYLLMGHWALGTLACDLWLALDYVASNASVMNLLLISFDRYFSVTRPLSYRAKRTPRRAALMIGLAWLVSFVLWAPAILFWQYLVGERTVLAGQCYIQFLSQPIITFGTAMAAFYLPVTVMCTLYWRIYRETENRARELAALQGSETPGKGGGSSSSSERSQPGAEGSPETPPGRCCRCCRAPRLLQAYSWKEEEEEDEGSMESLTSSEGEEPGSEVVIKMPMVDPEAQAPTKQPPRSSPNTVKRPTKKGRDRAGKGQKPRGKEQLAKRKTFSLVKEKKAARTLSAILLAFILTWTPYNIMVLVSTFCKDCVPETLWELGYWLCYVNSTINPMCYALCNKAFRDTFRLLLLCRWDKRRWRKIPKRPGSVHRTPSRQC
Experimental: as §2, §3

[16] = biological target: T10, human dopamine D3 receptor (Homo sapiens, UniProt P35462); experiment: Competition radioligand binding, [3H]-spiperone, CHO-K1 membranes
T10 construct: expressed in transfected cells; host or cells: CHO-K1
T10 sequence (P35462 whole entry): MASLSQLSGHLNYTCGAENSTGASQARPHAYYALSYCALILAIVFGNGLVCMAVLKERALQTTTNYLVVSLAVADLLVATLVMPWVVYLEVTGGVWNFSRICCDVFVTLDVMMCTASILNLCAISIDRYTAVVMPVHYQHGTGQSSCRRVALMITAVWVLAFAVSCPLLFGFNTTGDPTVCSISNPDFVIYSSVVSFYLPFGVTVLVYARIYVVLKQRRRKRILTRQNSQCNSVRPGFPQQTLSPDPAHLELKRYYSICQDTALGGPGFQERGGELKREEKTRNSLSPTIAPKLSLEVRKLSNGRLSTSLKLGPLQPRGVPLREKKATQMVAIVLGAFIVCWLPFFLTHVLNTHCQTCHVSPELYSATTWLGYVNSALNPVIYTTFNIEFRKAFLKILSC
Experimental: as §2, §3

[17] = read-out: Ki 5-HT1A (converted)
[18] = mean ± SEM, read-out: pKi D2 (converted)

SMILES | Ki ([1]; read-out: Ki D2 (converted)) [nM] | Ki [2] [nM] | pKi 5-HT2A/pKi D2 [2] | Ki [3, 17] [nM] | further results
COc1ccccc1N1CCN(CCCNC(=O)c2n[nH]c3ccccc23)CC1 [Compound 2, N-(3-(4-(2-methoxyphenyl)piperazin-1-yl)propyl)-1H-indazole-3-carboxamide] | 22.7 | 372 | 0.84 | 22.9 | 
COc1cccc(N2CCN(CCCNC(=O)c3n[nH]c4ccccc34)CC2)c1 [Compound 3, N-(3-(4-(3-methoxyphenyl)piperazin-1-yl)propyl)-1H-indazole-3-carboxamide] | 315 | 184 | 1.04 | 110 | 
COc1ccc(N2CCN(CCCNC(=O)c3n[nH]c4ccccc34)CC2)cc1 [Compound 4, N-(3-(4-(4-methoxyphenyl)piperazin-1-yl)propyl)-1H-indazole-3-carboxamide] |  | 491 |  |  | inhibition at 10 µM [1]: 46 ± 6%; inhibition at 10 µM [3]: 58.4 ± 1.8%
O=C(NCCCN1CCN(c2ccccn2)CC1)c1n[nH]c2ccccc12 [Compound 5, N-(3-(4-(pyridin-2-yl)piperazin-1-yl)propyl)-1H-indazole-3-carboxamide] | 339 | 132 | 1.06 | 113 | 
O=C(NCCCN1CCN(c2cccnc2)CC1)c1n[nH]c2ccccc12 [Compound 6, N-(3-(4-(pyridin-3-yl)piperazin-1-yl)propyl)-1H-indazole-3-carboxamide] | 1010 | 2650 | 0.93 | 1380 | 
O=C(NCCCN1CCN(c2ccncc2)CC1)c1n[nH]c2ccccc12 [Compound 7, N-(3-(4-(pyridin-4-yl)piperazin-1-yl)propyl)-1H-indazole-3-carboxamide] |  |  |  |  | inhibition at 10 µM [1]: 0%; inhibition at 10 µM [2]: 0%; inhibition at 10 µM [3]: 27.9 ± 2.7%
O=C(NCCCN1CCN(c2ncccn2)CC1)c1n[nH]c2ccccc12 [Compound 8, N-(3-(4-(pyrimidin-2-yl)piperazin-1-yl)propyl)-1H-indazole-3-carboxamide] | 480 | 807 | 0.96 | 238 | 
O=C(NCCCN1CCN(c2ccccc2F)CC1)c1n[nH]c2ccccc12 [Compound 9, N-(3-(4-(2-fluorophenyl)piperazin-1-yl)propyl)-1H-indazole-3-carboxamide] | 42.2 | 117 | 0.94 | 135 | Ki [1, 18]: 41.7 nM
O=C(NCCCN1CCN(c2cccc(F)c2)CC1)c1n[nH]c2ccccc12 [Compound 10, N-(3-(4-(3-fluorophenyl)piperazin-1-yl)propyl)-1H-indazole-3-carboxamide] |  | 94.4 | 1.07 | 114 | Ki [4]: 589 nM; Motor coordination (rota-rod) [5]: lack of statistically significant difference; Ki [6]: 1000 nM; Effect on amphetamine-induced hyperactivity ([7]; 40 mg/kg i.p., 30 min before amphetamine 5 mg/kg s.c.): significantly reduced hyperactivity induced by amphetamine; EC50 [8]: 356 ± 83 nM; inhibition at 10 µM [8]: 90.2 ± 4.1%; Effect on anxiety in EPM test [9]: no statistically significant effect on the EPM performance; Effect on PA performance (memory acquisition) [10]: no statistically significant effect on PA performance; inhibition at 10 µM [11]: 96.8 ± 2%; Kb [11]: 101 ± 31 nM; Spontaneous locomotor activity [12]: did not induce statistically significant changes; Ki [13]: 181 nM; Kb [14]: 31.2 nM; inhibition at 1 µM [14]: 50.8 ± 5.4%; inhibition at 10 µM [14]: 52.6 ± 9.8%; inhibition at 10 µM [15]: 0%; Ki [16]: 719 nM; Ki ([3]; mean ± SEM, read-out: pKi 5-HT1A (converted)): 112 nM
O=C(NCCCN1CCN(c2ccc(F)cc2)CC1)c1n[nH]c2ccccc12 [Compound 11, N-(3-(4-(4-fluorophenyl)piperazin-1-yl)propyl)-1H-indazole-3-carboxamide] | 450 | 12.6 | 1.24 | 607 | Ki [4]: 196 nM; Ki [6]: 364 nM; EC50 [8]: 5600 ± 1200 nM; inhibition at 10 µM [8]: 75.3 ± 6.8%; inhibition at 10 µM [11]: 103 ± 2.2%; Kb [11]: 19.2 ± 7.2 nM; Kb [14]: 99.1 nM; inhibition at 1 µM [14]: 21.3 ± 4.3%; inhibition at 10 µM [14]: 49.7 ± 8%; inhibition at 10 µM [15]: 0%; Ki [16]: 5010 nM
O=C(NCCCN1CCN(c2ccccc2C(F)(F)F)CC1)c1n[nH]c2ccccc12 [Compound 12, N-(3-(4-(2-(trifluoromethyl)phenyl)piperazin-1-yl)propyl)-1H-indazole-3-carboxamide] | 45.2 | 832 | 0.83 | 423 | Ki [1, 18]: 44.7 nM
O=C(NCCCN1CCN(c2ccccc2Cl)CC1)c1n[nH]c2ccccc12 [Compound 13, N-(3-(4-(2-chlorophenyl)piperazin-1-yl)propyl)-1H-indazole-3-carboxamide] | 69.7 | 134 | 0.96 | 107 | 
CSc1ccccc1N1CCN(CCCNC(=O)c2n[nH]c3ccccc23)CC1 [Compound 14, N-(3-(4-(2-(methylthio)phenyl)piperazin-1-yl)propyl)-1H-indazole-3-carboxamide] | 7.05 | 217 | 0.82 | 12.4 | 
CCOc1ccccc1N1CCN(CCCNC(=O)c2n[nH]c3ccccc23)CC1 [Compound 15, N-(3-(4-(2-ethoxyphenyl)piperazin-1-yl)propyl)-1H-indazole-3-carboxamide] | 19.8 | 280 | 0.85 | 46.9 | 
O=C(NCCCN1CCN(C2CCCCC2)CC1)c1n[nH]c2ccccc12 [Compound 16, N-(3-(4-cyclohexylpiperazin-1-yl)propyl)-1H-indazole-3-carboxamide] |  |  |  |  | inhibition at 10 µM [1]: 19 ± 6.8%; inhibition at 10 µM [2]: 25.6 ± 9%; inhibition at 10 µM [3]: 56.7 ± 1.6%
CC(N)Cc1ccccc1 (stereo not shown) [amphetamine, reference compound] |  |  |  |  | Locomotor activity vs. vehicle group ([7]; 5 mg/kg s.c., recorded 30 min): increased locomotor activity
